The target in one series is PARP5A (Homo sapiens (Human), UniProt O95271). Briefly: PARP5A enzyme activity test. The format is biochemical.
The test system of series [1] is MDA-MB-436 subcutaneous transplanted tumor. Briefly: Mouse MDA-MB-436 subcutaneous in vivo transplanted tumor model.
Procedure: Human breast cancer MDA-MB-436 cells were placed in Leibovitz's L-15 medium (supplemented with 10 μg/mL insulin, 16 μg/mL glutathione, 10% fetal bovine serum and 1% double antibody) and cultured at 37° C. Conventional digestion treatment with trypsin was carried out twice a week for passage. When the cell saturation was 80%-90%, and the number reached the requirement, the cells were collected, counted, and inoculated. BALB/c nude mice (from Beijing Vital River Laboratory Animal Technology Co., Ltd.) were subcutaneously inoculated with 0.2 mL (10×10^6) of MDA-MB-436 cells (plus matrigel, with the volume ratio of 1:1) on the right back. When the average tumor volume reached about 180 mm^3, grouping and administration were performed (marked as Day 0). […] The administration frequency was once a day, the administration cycle was 29 days, and the drug withdrawal observation period was set to 14 days. After grouping, the tumor diameter was measured twice a week with a vernier caliper. The formula for calculating the tumor volume was: V=0.5×a×b^2, where a and b represented the long and short diameters of the tumor, respectively.
The next series deals with PARP7 (Homo sapiens (Human), UniProt Q7Z3E1). Briefly: PARP7 enzyme activity test. The format is biochemical.
Another series has as its target PARP15 (Homo sapiens (Human), UniProt Q460N3). Nature of the series: PARP15 enzyme activity test. The format is biochemical.
Series [2] in a line: Pharmacokinetic test in rats. The class given is in vivo, rat. The following applies: male SD rats. As for the experimental part: • 1.1 Experimental animals: male SD rats, about 220 g, 6-8 weeks old, 6 rats/compound, purchased from Chengdu Ddossy Experimental Animals Co., Ltd. • 1.2 Experimental design: on the day of the test, 6 SD rats were randomly grouped according to their body weight; the animals were fasted with water available for 12 to 14 h one day before the administration, and were fed 4 h after the administration.
Before and after the administration, 0.15 mL of blood was taken from the orbit of the animals under isoflurane anesthesia and placed in an EDTAK2 centrifuge tube. The blood was centrifuged at 5000 rpm and 4° C. for 10 min to collect plasma. The blood collection time points for the intravenous administration group and intragastric administration group were: 0, 5 min, 15 min, 30 min, 1 h, 2 h, 4 h, 6 h, 8 h, and 24 h. Before analysis and detection, all samples were stored at −80° C. The samples were analyzed quantitatively by LC-MS/MS.

Series [3] relates to Human breast cancer MDA-MB-231 cells. Briefly: MDA-MB-231 cell proliferation inhibition test (CellTiter-Glo, 7 days). The class given is cell-based. The following applies: MDA-MB-231, 168 h, 7 days incubation. As for the experimental part: (§1) The cells in the exponential growth phase were collected, and the cell suspension was adjusted to 1500 cells/135 μL with the culture medium. 135 μL of the cell suspension was added to each well of a 96-well cell culture plate and incubated overnight. On day 2, compounds at different concentrations were added, and the plate was placed in the incubator and incubated for 7 days. After the incubation was completed, according to operation instructions for a CellTiter-Glo kit (Promega, Cat #G7573), 75 μL of CTG solution, which was already pre-melted and equilibrated to room temperature, was added to each well, and the mixture was uniformly mixed for 2 min using a microplate shaker. The plate was placed at room temperature for 10 min, and then […] signal values were measured using an Envision 2104 plate reader (PerkinElmer).
For orientation: Cellular ATP, detected with luciferase, serves as a proxy for viable cell number.

For series [4], the system named is breast tumor cells MDA-MB-436. Briefly: MDA-MB-436 cell activity test (CellTiter-Glo, 7 days). The class given is cell-based. The following applies: Homo sapiens, MDA-MB-436, 168 h, 7 days incubation; for inhibition at 10 µM: read-out: MDA-MB-436 Max inh. % 10 μM; for IC50: read-out: MDA-MB-436 cell inhibitory activity IC50. The method, then:
as §1, with “Breast tumor cells MDA-MB-436 were purchased from ATCC, the culture medium was Leibovitz's L-15+10% FBS, and the cells were cultured in a CO2-free incubator at 37° C. On day 1, the cells” for “The cells”, “to 4000” for “to 1500”, “(Promega, G7573),” for “(Promega, Cat #G7573),”, “an Envision2104” for “an Envision 2104”, “(PerkinElmer). The inhibition rate was calculated using formula (1), where RLUcompound was the readout of the drug treated group, RLUcontrol was the average value of the vehicle control group, and RLUblank was the average value of the cell-free well. The IC50 value was calculated using GraphPad Prism software.” for “(PerkinElmer).”

A further series addresses PARP5B (Homo sapiens (Human), UniProt Q9H2K2). Briefly: PARP5B enzyme activity test. The format is biochemical.
Another series has as its target PARP-1 enzyme (Homo sapiens (Human), UniProt P09874). Briefly: PARP1 enzyme activity test (BPS Bioscience chemiluminescence kit). The class given is biochemical. An excerpt:
Inhibition %=(1−(RLUsample−RLUmin)/(RLUmax−RLUmin))×100% (formula 1)

Setting [5] is: Sprague-Dawley (SD), rat, iv, i.v. 2.5 mg/kg, plasma.

The term IC50 denotes the concentration that inhibits the measured activity by half. What is called AUC(0-t) is the area under the concentration-time curve up to a stated or last time point. High values mean high exposure, low ones low exposure. The term clearance denotes a measure of how efficiently the substance is removed, as volume per time. High values mean a high capacity for elimination, low ones a low capacity for elimination.

Sequence of PARP-1 enzyme (P09874 whole entry): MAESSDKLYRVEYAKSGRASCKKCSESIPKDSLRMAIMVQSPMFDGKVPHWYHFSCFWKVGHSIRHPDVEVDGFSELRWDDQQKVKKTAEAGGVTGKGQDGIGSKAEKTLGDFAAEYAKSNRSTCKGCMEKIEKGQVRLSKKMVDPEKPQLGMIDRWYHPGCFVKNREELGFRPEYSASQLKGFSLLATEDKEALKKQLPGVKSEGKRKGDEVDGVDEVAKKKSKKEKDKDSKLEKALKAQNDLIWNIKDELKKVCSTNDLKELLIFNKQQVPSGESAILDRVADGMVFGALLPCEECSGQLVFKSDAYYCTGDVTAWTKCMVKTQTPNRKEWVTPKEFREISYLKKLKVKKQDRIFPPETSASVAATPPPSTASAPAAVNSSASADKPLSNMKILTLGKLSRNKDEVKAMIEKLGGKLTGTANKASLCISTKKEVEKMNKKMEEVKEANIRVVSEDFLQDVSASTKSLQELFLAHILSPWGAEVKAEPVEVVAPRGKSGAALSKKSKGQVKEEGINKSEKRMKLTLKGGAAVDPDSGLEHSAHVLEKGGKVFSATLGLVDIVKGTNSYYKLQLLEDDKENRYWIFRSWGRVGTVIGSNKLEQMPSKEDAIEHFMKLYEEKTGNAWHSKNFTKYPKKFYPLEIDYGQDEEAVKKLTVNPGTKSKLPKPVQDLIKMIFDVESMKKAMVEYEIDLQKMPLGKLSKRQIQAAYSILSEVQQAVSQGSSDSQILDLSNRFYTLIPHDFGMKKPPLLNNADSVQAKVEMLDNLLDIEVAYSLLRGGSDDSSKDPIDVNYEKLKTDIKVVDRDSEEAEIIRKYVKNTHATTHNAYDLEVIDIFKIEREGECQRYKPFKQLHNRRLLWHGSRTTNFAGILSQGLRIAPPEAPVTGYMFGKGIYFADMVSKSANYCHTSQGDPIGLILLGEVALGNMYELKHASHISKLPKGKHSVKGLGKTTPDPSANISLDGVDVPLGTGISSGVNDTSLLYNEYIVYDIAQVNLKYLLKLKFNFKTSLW
Sequence of PARP15 (Q460N3 whole entry): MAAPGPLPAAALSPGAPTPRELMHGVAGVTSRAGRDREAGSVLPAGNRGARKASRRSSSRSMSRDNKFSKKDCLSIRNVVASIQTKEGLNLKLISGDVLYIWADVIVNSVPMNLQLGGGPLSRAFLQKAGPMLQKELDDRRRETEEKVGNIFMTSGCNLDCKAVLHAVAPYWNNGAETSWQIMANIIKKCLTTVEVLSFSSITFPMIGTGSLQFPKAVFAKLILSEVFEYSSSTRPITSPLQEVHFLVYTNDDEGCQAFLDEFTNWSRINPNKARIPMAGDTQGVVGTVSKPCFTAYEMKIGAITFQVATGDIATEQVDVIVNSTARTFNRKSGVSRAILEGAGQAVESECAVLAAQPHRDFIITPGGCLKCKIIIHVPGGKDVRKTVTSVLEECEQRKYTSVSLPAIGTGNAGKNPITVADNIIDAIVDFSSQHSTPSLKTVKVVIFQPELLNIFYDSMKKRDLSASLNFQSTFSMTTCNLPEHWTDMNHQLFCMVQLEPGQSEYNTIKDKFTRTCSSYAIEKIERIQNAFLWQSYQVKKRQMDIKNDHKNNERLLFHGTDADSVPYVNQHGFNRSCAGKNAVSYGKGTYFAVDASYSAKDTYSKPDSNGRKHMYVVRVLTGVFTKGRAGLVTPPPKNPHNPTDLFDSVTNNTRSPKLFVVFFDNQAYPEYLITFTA
Sequence of PARP5B (Q9H2K2 667-1166 limits assumed): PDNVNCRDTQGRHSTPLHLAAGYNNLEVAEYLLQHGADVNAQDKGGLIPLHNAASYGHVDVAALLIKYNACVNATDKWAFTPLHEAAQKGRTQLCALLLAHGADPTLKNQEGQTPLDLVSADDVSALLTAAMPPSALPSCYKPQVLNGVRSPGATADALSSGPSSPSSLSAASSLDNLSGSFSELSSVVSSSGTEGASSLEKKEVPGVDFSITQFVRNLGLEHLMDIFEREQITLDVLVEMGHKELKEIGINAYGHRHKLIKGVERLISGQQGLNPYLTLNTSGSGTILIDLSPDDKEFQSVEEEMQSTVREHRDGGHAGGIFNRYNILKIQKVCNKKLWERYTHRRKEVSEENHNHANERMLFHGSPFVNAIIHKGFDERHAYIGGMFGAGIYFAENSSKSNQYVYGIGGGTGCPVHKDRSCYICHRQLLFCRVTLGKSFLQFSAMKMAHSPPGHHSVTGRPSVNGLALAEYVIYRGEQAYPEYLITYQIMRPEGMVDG
Sequence of PARP7 (Q7Z3E1 whole entry): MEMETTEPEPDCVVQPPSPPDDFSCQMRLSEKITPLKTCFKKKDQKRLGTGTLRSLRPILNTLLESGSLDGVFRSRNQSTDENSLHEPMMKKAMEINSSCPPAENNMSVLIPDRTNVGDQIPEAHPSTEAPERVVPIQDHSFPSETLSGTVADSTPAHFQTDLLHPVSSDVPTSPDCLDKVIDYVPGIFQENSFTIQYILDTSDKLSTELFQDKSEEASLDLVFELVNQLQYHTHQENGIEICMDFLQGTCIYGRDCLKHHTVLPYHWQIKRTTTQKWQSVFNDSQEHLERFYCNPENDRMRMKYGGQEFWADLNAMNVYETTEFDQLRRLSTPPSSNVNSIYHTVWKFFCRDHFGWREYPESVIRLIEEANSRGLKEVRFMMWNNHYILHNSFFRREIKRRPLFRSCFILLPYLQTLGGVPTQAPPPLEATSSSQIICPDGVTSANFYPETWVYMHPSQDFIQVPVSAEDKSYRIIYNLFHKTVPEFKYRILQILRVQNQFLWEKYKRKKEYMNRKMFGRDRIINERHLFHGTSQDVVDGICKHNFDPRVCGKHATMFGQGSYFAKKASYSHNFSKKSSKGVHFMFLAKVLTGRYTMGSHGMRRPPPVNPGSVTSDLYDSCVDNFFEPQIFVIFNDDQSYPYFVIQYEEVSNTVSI
Sequence of PARP5A (O95271 1001-1327 limits assumed): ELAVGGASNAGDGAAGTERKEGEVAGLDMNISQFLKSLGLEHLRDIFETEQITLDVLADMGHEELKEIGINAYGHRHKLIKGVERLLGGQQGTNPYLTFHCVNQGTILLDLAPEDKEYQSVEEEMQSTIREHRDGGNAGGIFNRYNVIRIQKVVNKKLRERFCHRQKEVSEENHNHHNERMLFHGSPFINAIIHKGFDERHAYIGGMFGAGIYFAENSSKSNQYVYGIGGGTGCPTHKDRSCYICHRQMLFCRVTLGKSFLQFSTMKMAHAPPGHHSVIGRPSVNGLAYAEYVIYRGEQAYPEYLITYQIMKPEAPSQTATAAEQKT
Procedure for PARP15: (§2) PARP2, PARP5A, PARP5B, PARP6, PARP7, PARP14 and PARP15 chemical fluorescence detection kits were purchased from BPS Bioscience. The histone solution in the kit was diluted 5× with 1×PBS, and 25 μL of the diluted histone solution was added to a microwell plate and incubated overnight at 4° C. After the incubation, the plate was washed three times with PBST (0.05% Tween-20). 100 μL of the blocking solution was added to the microwell plate and incubated at 25° C. for 90 minutes. After the incubation, the plate was washed three times with PBST. […] 5 μL of the diluted PARP enzyme was added to the microwell plate, and the reaction system was incubated at 25° C. for 60 minutes.
(§3) After the incubation, the plate was washed three times with PBST. Streptavidin-HRP was diluted 50× with a blocking solution, and 25 μL of the diluent was added to the microwell plate and incubated at 25° C. for 30 minutes. After the incubation, the plate was washed three times with PBST. ELISA ECL substrate A and substrate B were mixed at a ratio of 1:1 (v/v), 25 μL of the mixture was added to the microwell plate, and the chemiluminescence value was read.
(§4) Curve fitting was performed by four parameters (log(inhibitor) vs. response—Variable slope) using GraphPad Prism software, and the IC50 value was calculated.
Procedure for PARP5A: as §2, §3, §4
Procedure for PARP5B: as §2, §3, §4
Procedure for PARP7: as §2, §3, §4

As to `CCc1cc2ncc(CN3CCN(c4ccc(C(=O)NC5CC5)nc4)CC3)cc2[nH]c1=O` [Compound 4, N-cyclopropyl-5-(4-((7-ethyl-6-oxo-5,6-dihydro-1,5-naphthyridin-3-yl)methyl)piperazin-1-yl)picolinamide], the half-maximal inhibitory concentration (IC50) was determined as 6080 nM against PARP5A; 5360 nM on PARP7; 4300 nM on PARP15; 15900 nM in series [3] (BRCA WT cells, read-out: MDA-MB-231 cell inhibitory activity IC50); 2 nM in series [4]; 576 nM at PARP5B. The “tumor growth after the drug withdrawal” value in [1] (14 days drug withdrawal observation period) is listed as “did not grow again”. The “body weight of the animals” value in [1] (BALB/c nude mice, once a day, Day 0-10: 1 mg/kg, Day 11-28: 0.1 mg/kg) was “no significant decrease in the body weight”. Further, the TGI in series [1] (BALB/c nude mice, once a day, Day 0-10: 1 mg/kg, Day 11-28: 0.1 mg/kg, after 28 days of administration) came to 119%. Also, the AUC(0-t) in series [2] (setting [5]) turned out to be 46.6 ± 4.75 µg·h/mL; in series [2] (Sprague-Dawley (SD), rat, po, i.g. 10 mg/kg, plasma), 184 ± 72.3 µg·h/mL. Further, in series [2] (setting [5]), the clearance was 0.896 ± 0.097 mL/min/kg. For the same compound, in [2] (Sprague-Dawley (SD), rat, iv, i.v. 2.5 mg/kg, plasma, read-out: Vdss), the Vd stood at 0.236 ± 0.022 L/kg. The F in series [2] (i.g. 10 mg/kg) is recorded as 98.8 ± 39%. The inhibition at 10 µM in series [3] (10 μM, read-out: MDA-MB-231 Max inh. % 10 μM) turned out to be 66.8%; in [4], 89.4%.
As to `CCc1cc2ncc(CN3CCN(c4ccc(NC(=O)c5cnn(C)c5)nc4)CC3)cc2[nH]c1=O` [Compound 33, N-(5-(4-((7-ethyl-6-oxo-5,6-dihydro-1,5-naphthyridin-3-yl)methyl)piperazin-1-yl)pyridin-2-yl)-1-methyl-1H-pyrazole-4-carboxamide], the IC50 against PARP-1 enzyme amounted to 0.74 nM. In [4], the inhibition at 10 µM came out at 90% and the IC50 turned out to be 3.1 nM.
With `CCc1cc2ncc(CN3CCN(c4ccc(NC(=O)OC5CC5)nc4)CC3)cc2[nH]c1=O` [Compound 37, Cyclopropyl(5-(4-((7-ethyl-6-oxo-5,6-dihydro-1,5-naphthyridin-3-yl)methyl)piperazin-1-yl)pyridin-2-yl)carbamate], it took 0.96 nM to reach half-maximal inhibition against PARP-1 enzyme (IC50). For the same compound, in series [4], the inhibition at 10 µM was 93.7% and the IC50 is 18.9 nM.
The matching figures for `CCc1cc2ncc(CN3CCN(c4ccc(C(=O)NC5CC6(CCC6)C5)nc4)CC3)cc2[nH]c1=O` [Compound 38, 5-(4-((7-ethyl-6-oxo-5,6-dihydro-1,5-naphthyridin-3-yl)methyl)piperazin-1-yl)-N-(spiro[3.3]heptan-2-yl)picolinamide]: 0.7 nM, 98.8% and 17.6 nM.
The matching figures for `CCc1cc2ncc(CN3CCN(c4ccc(C(=O)NC56CC(C5)C6)nc4)CC3)cc2[nH]c1=O` [Compound 39, N-(bicyclo[1.1.1]pentan-1-yl)-5-(4-((7-ethyl-6-oxo-5,6-dihydro-1,5-naphthyridin-3-yl)methyl)piperazin-1-yl)picolinamide]: 0.77 nM, 99.1% and 1.2 nM.
On PARP-1 enzyme, `CCc1cc2ncc(CN3CCN(c4ccc(C(=O)NCC5CC5)nc4)CC3)cc2[nH]c1=O` [Compound 40, N-(cyclopropylmethyl)-5-(4-((7-ethyl-6-oxo-5,6-dihydro-1,5-naphthyridin-3-yl)methyl)piperazin-1-yl)picolinamide] gave an IC50 of 0.61 nM. In [4], the inhibition at 10 µM worked out at 99.3% and the IC50 stood at 5.6 nM.
`CCc1cc2ncc(CN3CCN(c4ccc(C(=O)N[C@H]5C[C@H]5F)nc4)CC3)cc2[nH]c1=O` [Compound 41, 5-(4-((7-ethyl-6-oxo-5,6-dihydro-1,5-naphthyridin-3-yl)methyl)piperazin-1-yl)-N-((1S,2R)-2-fluorocyclopropyl)picolinamide] displayed an IC50 against PARP-1 enzyme of 0.84 nM. In addition, in series [4], the inhibition at 10 µM amounted to 92.1% and the IC50 stood at 2.3 nM.
In turn, `CCc1cc2ncc(CN3CCN(c4ccc(-c5nnc(C)[nH]5)nc4)CC3)cc2[nH]c1=O` [Compound 42, 3-ethyl-7-((4-(6-(5-methyl-4H-1,2,4-triazol-3-yl)pyridin-3-yl)piperazin-1-yl)methyl)-1,5-naphthyridin-2 (1H)-one] gave an IC50 at PARP-1 enzyme of 0.67 nM. In [4], the inhibition at 10 µM amounted to 84.1% and the IC50 was 24.1 nM.

The values above are taken from patent publication US20240400586A1, “HETEROARYL DERIVATIVE PARP INHIBITOR AND USE THEREOF” (HAISCO PHARMACEUTICAL GROUP CO., LTD., priority 2021, published 2024).
